Target: P. falciparum 3D7A growth, LDH activity
Test: asexual P. falciparum growth inhibition, dose response, strain 3D7A, LDH readout (AID 2060598)

SMILES | IC50 (restricted media, 72 h) | IC50 (standard media with serum)
O=C(COc1ccc(Br)cc1F)N1CCN(c2cnccn2)CC1 | 251 nM | 2510 nM
O=C(CCCc1c[nH]c2ccccc12)N1CCN(c2ccc(N3CCOCC3)nn2)CC1 | 398 nM | 5010 nM
CN(C(=O)C[C@@H]1CCN(C(=O)C2CC2)C1)c1ccc(-c2ccc(C#N)cc2)cc1 | 251 nM | 3980 nM
COc1ccc(C(=O)N2CCN(c3ccc(-n4cccn4)nn3)CC2)cc1OC | 126 nM | 1580 nM
O=C(Nc1ccc(N2CCCC2)nc1)N1CCN(c2cnccn2)CC1 | 79.4 nM | 2000 nM
Cc1cccc(-c2nn(Cc3ccc(C(=O)NCCCO)cc3)c(=O)cc2N2CCCC(CO)C2)c1 (stereo unspecified) | 794 nM | 7940 nM
Cn1cccc1C1CCCN1CC(=O)Nc1ccc(S(=O)(=O)N2CCOCC2)cc1 (stereo unspecified) | 794 nM | 10000 nM
COc1ccc(N2CCN(C(=O)c3csc(Nc4ccccc4S(C)(=O)=O)n3)CC2)nc1 | 79.4 nM | 1000 nM
O=C1CSc2ccc(C(=O)Nc3ccc(-c4nnc5n4CCCCC5)cc3)cc2N1 | 501 nM | 5010 nM
N#Cc1cccc(NC(=O)CNc2ccccc2C(=O)NC2CC2)c1 | 39.8 nM | 398 nM
COc1ccc(NC(=O)c2ccc3c(=O)n(Cc4ccccn4)cnc3c2)cc1N1CCN(C)CC1 | 398 nM | 3980 nM
CCCOc1cncc(S(=O)(=O)c2ccc3c(c2)CCN(C2CCC2)CC3)c1 | 316 nM | 3980 nM
COc1ccc(-c2ccc(CNC(=O)c3cc(C(=O)NC(C)C)ccc3Cl)cc2)cn1 | 63.1 nM | 631 nM
NC(=O)CC1CCN(C(=O)c2sc3sccc3c2Cl)CC1 | 316 nM | 3160 nM
Cc1cc(-c2cnc(N3CCn4c(nnc4C4CC4)C3)nc2-c2ccncc2)on1 | 100 nM | 1580 nM
COc1ccc2oc(C(=O)NC3CCC(Oc4ncccn4)CC3)cc2c1 (stereo unspecified) | 126 nM | 1260 nM
O=C1CCCN1c1ccc(S(=O)(=O)N2CCN(S(=O)(=O)c3ccccc3)CC2)cc1 | 501 nM | > 50100 nM

SMILES | IC50 (restricted media, 72 h) | IC50 (standard media with serum)
CC(C)Oc1ccc(-c2nnc(Oc3cccc4c3CCN(CCC(N)=O)CC4)s2)cc1C#N | 501 nM | 10000 nM
O=C(/C=C/c1n[nH]c2ccccc12)N1CCN(c2cnccn2)CC1 | 158 nM | 2000 nM
O=C(CCN=C1NS(=O)(=O)c2ccccc21)Nc1ccc(S(=O)(=O)N2CCCC2)cc1 | 794 nM | 7940 nM
CCN(CC)c1ccc(C(=O)COc2ccc3c(c2)CCNCC3)cc1 | 63.1 nM | 1000 nM
Cc1cc(Cl)ccc1OCC(=O)N1CCc2c(cnc(C)c2CNC(=O)c2ccc(=O)[nH]n2)C1 | 20 nM | 316 nM
CCN(C(=O)C=Cc1ccc(S(=O)(=O)N2CCc3ccccc32)cc1)C1CCS(=O)(=O)C1 (stereo unspecified) | 200 nM | 2510 nM
O=C(c1cc2ccccc2[nH]1)N1CCC2(CC(Nc3ccncn3)C2)C1 (stereo unspecified) | 31.6 nM | 316 nM
O=C(Nc1nnc(-c2ccccc2)s1)N1CCCN(c2ncccn2)CC1 | 20 nM | 200 nM
N#Cc1c(N)n[nH]c1CCCNC(=O)c1ccc(Cl)c(S(=O)(=O)N2CCCC2)c1 | 50.1 nM | 631 nM
O=C(CCn1nnc2cc(S(=O)(=O)N3CCCC3)ccc21)N1CCN(c2ccccn2)CC1 | 126 nM | 1260 nM
O=C(Nc1cccnc1)C1CCN(c2ccc(-c3ccco3)nn2)CC1 | 794 nM | 7940 nM
Cc1nn(C2CCS(=O)(=O)C2)c(C)c1CN(C)C(=O)CN1C(=O)NC2(CCCCC2C)C1=O (stereo unspecified) | 63.1 nM | 631 nM
O=C(CCCc1ncc(-c2ccccc2)o1)N1CCOC2CCCC21 (stereo unspecified) | 158 nM | 2000 nM
O=C(NCCCN1CCc2ccccc21)c1ccc2c(=O)n(Cc3ccccn3)cnc2c1 | 63.1 nM | 794 nM
O=C(/C=C/c1n[nH]c2ccccc12)Nc1ccc(C(=O)NCCN2CCOCC2)cc1 | 316 nM | 3160 nM
Cc1ccc2nc(CCNC(=O)CCS(=O)(=O)c3ccc4c(c3)CC(=O)N4C)[nH]c2c1 | 31.6 nM | 501 nM

From PubChem BioAssay AID2060598 (Global Health Medicines R&D, GSK, 2025)
